The values that follow come from US10774102B2, “Galactoside inhibitor of galectins” (Galecto Biotech AB, priority 2015, dated 2020).

In one data set the target is galectins. The conditions noted are these: cited from earlier work.
Data set [1] is described as follows: Pharmacokinetic studies in mice. The conditions noted are these: mouse, in vivo. From the text:
This is exemplified by Example 9 3,4-Dichlorophenyl 3-deoxy-3-[4-(3,4,5-trifluorophenyl)-1H-1,2,3-triazol-1-yl]-1-thio-α-D-galactopyranoside in the table below.

A further data set addresses galectin-3 (Homo sapiens (Human), UniProt P17931). Briefly: Fluorescence anisotropy assay of galectin-3 affinity (compound inhibits galectin binding to a fluorescein tagged saccharide probe). To be noted: high affinity probe, 50 nM galectin-3, 100 nM albumin. As for the experimental part: 100 nM albumin was included as a carrier to prevent protein loss at such low concentration of galectin.
A general note: Fluorescence polarisation rises when a labelled molecule tumbles more slowly, as on binding a larger partner.

Chain of galectin-3 (P17931 whole entry): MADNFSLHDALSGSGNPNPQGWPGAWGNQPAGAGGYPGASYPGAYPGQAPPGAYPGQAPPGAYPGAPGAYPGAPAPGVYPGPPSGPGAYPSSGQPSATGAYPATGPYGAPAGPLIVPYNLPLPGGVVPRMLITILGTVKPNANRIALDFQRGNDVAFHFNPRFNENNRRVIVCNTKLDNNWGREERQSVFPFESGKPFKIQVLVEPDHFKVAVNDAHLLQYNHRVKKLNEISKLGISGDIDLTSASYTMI

What is called Kd is the free concentration of one partner at which half of the binding sites on the other are occupied at equilibrium, for simple one-to-one binding. Turning to `OC[C@H]1O[C@@H](O[C@H]2[C@H](O)[C@@H](O)C(O)O[C@@H]2CO)[C@H](O)[C@@H](O)[C@H]1O` (some centres unmarked) [lactose], at galectins (all galectins), the equilibrium dissociation constant (Kd) was 500 to 1000 µM.
The term bioavailability denotes dose-corrected exposure relative to a reference, in per cent. As usually defined, the Cmax is the maximum level reached in the sampled fluid or tissue. What is called clearance is the volume of plasma or blood freed of the substance per unit of time. For the compound `OC[C@H]1O[C@H](Sc2ccc(Cl)c(Cl)c2)[C@H](O)[C@@H](n2cc(-c3cc(F)c(F)c(F)c3)nn2)[C@H]1O` [Example 9, 3,4-Dichlorophenyl 3-deoxy-3-[4-(3,4,5-trifluorophenyl)-1H-1,2,3-triazol-1-yl]-1-thio-α-D-galactopyranoside], in data set [1] (10 mg/kg, oral, read-out: Bioavailability (F)), the bioavailability amounted to 75%. In addition, in data set [1] (po, 10 mg/kg), the highest level (Cmax) was 16 µM. Also, in data set [1] (read-out: Clearance (CL)), the clearance was found to be 1.2 mL/min/kg. Further, in data set [1] (read-out: Halflife (t½) (converted)), the half-life was 4.5 h.
Compound `OC[C@H]1O[C@H](Oc2ccccc2)[C@H](O)[C@@H](n2cc(-c3cc(F)c(F)c(F)c3)nn2)[C@H]1O` [Example 32, Phenyl 3-deoxy-3-[4-(3,4,5-trifluorophenyl)-1H-1,2,3-triazol-1-yl]-α-D-galactopyranoside] registered a Kd on galectin-3 of 1 µM.
With `OC[C@H]1O[C@H](SC2CCCCC2)[C@H](O)[C@@H](n2cc(-c3cc(F)c(F)c(F)c3)nn2)[C@H]1O` [Example 35, Cyclohexyl 3-deoxy-3-[4-(3,4,5-trifluorophenyl)-1H-1,2,3-triazol-1-yl]-1-thio-α-D-galactopyranoside], on galectin-3, binding was put at a Kd of 0.44 µM.
The same measure, in the same setting: for `OC[C@H]1O[C@H](Sc2ccccc2)[C@H](O)[C@@H](n2cc(-c3cc(F)c(F)c(F)c3)nn2)[C@H]1O` [Example 27, Phenyl 3-deoxy-3-[4-(3,4,5-trifluorophenyl)-1H-1,2,3-triazol-1-yl]-1-thio-α-D-galactopyranoside] the value was 0.4 µM; for `Cc1ccc(S[C@H]2O[C@H](CO)[C@H](O)[C@H](n3cc(-c4cc(F)c(F)c(F)c4)nn3)[C@H]2O)cc1C` [Example 1, 3,4-Dimethylphenyl 3-deoxy-3-[4-(3,4,5-trifluorophenyl)-1H-1,2,3-triazol-1-yl]-1-thio-α-D-galactopyranoside], 0.15 µM; for `OC[C@H]1O[C@H](Sc2cc(Cl)cc(Cl)c2)[C@H](O)[C@@H](n2cc(-c3cc(F)c(F)c(F)c3)nn2)[C@H]1O` [Example 16, 3,5-Dichlorophenyl 3-deoxy-3-[4-(3,4,5-trifluorophenyl)-1H-1,2,3-triazol-1-yl]-1-thio-α-D-galactopyranoside], 0.08 µM.
On galectin-3, `OC[C@H]1O[C@H](Sc2cccc(C(F)(F)F)c2)[C@H](O)[C@@H](n2cc(-c3cc(F)c(F)c(F)c3)nn2)[C@H]1O` [Example 14, 3-(Trifluoromethyl)phenyl 3-deoxy-3-[4-(3,4,5-trifluorophenyl)-1H-1,2,3-triazol-1-yl]-1-thio-α-D-galactopyranoside] displayed a Kd of 0.13 µM.
Take `O=C[C@H](O)[C@@H](O)[C@@H](O)[C@H](O)CO` [D-galactose, D-(+)-galactose]: the “affinity relative to lactose (times lower)” value in the data set with galectins (galectins, compared with lactose) is 50-100 times lower.
In the case of `OC[C@H]1O[C@H](Sc2ccc(Cl)cc2Cl)[C@H](O)[C@@H](n2cc(-c3cc(F)c(F)c(F)c3)nn2)[C@H]1O` [Example 5, 2,4-Dichlorophenyl 3-deoxy-3-[4-(3,4,5-trifluorophenyl)-1H-1,2,3-triazol-1-yl]-1-thio-α-D-galactopyranoside], at galectin-3, the affinity, expressed as Kd, was 0.65 µM.
Still for that read-out and setting: for `O=C(N[C@@H]1C(O)[C@@H](Sc2ccc(Cl)c(Cl)c2)OC(CO)[C@@H]1O)c1cc(F)c(F)c(F)c1` (stereo partly drawn) [Example 96, 3,4-dichlorophenyl-3-deoxy-3-(3,4,5-trifluorobenzamido)-1-thio-α-D-galactopyranoside] the value was 3.5 µM; for `[O-][S+](c1ccc(Cl)cc1)[C@H]1O[C@H](CO)[C@H](O)[C@H](n2cc(-c3cc(F)c(F)c(F)c3)nn2)[C@H]1O` (stereo partly drawn) [Example 26, 4-Chlorophenyl 3-deoxy-3-[4-(3,4,5-trifluorophenyl)-1H-1,2,3-triazol-1-yl]-α-D-galactopyranosyl sulfoxide], 0.77 µM.
The compound `OC[C@H]1O[C@H](Sc2ccc(Br)cc2)[C@H](O)[C@@H](n2cc(-c3cc(F)c(F)c(F)c3)nn2)[C@H]1O` [Example 15, 4-Bromophenyl 3-deoxy-3-[4-(3,4,5-trifluorophenyl)-1H-1,2,3-triazol-1-yl]-1-thio-α-D-galactopyranoside] had a Kd on galectin-3 of 0.52 µM.
The compound `OC[C@H]1O[C@H](Sc2cccc(Cl)c2Cl)[C@H](O)[C@@H](n2cc(-c3cc(F)c(F)c(F)c3)nn2)[C@H]1O` [Example 8, 2,3-Dichlorophenyl 3-deoxy-3-[4-(3,4,5-trifluorophenyl)-1H-1,2,3-triazol-1-yl]-1-thio-α-D-galactopyranoside] returned a Kd at galectin-3 of 0.53 µM.
